Entries after “also recorded” stand apart in the source; their conditions may differ. Read-outs that look alike come from different tables or passages of the source.

The target in test [1] is T1, PBO-5 homomers (Caenorhabditis elegans, UniProt G5ECT0).
T1 construct: cloned into the pCR2.1 TA cloning vector (Invitrogen) and a full length clone pPD68 was generated; expressed in transfected cells; host or cells: Xenopus oocytes injected with PBO-5 cRNA (pSGEM-based plasmid pAB20)
T1 sequence (G5ECT0 22-504 isoform G5ECT0-2 limits assumed): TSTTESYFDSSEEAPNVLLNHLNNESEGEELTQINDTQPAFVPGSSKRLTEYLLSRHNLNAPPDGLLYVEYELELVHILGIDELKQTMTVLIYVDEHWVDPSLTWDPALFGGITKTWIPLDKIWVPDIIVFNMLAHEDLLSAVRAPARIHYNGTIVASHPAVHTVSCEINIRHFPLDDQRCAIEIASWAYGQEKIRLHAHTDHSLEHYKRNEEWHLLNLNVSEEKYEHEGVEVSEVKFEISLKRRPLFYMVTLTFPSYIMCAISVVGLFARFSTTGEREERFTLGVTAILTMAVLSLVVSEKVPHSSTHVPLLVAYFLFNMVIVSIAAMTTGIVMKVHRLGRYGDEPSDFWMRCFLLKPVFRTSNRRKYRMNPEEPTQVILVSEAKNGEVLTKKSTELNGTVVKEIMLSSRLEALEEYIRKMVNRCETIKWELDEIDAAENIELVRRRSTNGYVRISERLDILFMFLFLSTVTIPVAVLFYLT
As to the kind of experiment: Two-electrode voltage clamp of Xenopus oocytes injected with PBO-5 cRNA (homomers). It is filed as cell-based, C. elegans. As for the experimental part:
(§1) Capped RNA was prepared using the T7 mMessage mMachine kit (Ambion). Xenopus oocytes were collected and coinjected with 25 ng each of PBO-5 and PBO-8 cRNA and two-electrode voltage clamp recordings were performed 3-5 days post-injection. The standard bath solution for dose-response and control I-V experiments was Ringer's (in mM): 115 NaCl, 1.8 […], 10 Bis-Tris Propane (pH 7.4 Acetic acid). For dose-response experiments, each oocyte was subjected to a 5 second application of test pH (7.0 - 5.0) with 2 minutes of pH 7.4 wash between test applications.
To determine if PBO-5 can form a homo-oligomeric receptor, we injected PBO-5 cRNA in Xenopus oocytes. […] Two-electrode voltage clamp recordings were used to assay receptor functionality.
To determine if PBO-5 and PBO-8 can co-assemble to form a functional receptor, we injected PBO-5 and PBO-8 cRNA into Xenopus oocytes. […] To determine the possible signal that mediates posterior body contraction we examined the pbo-4 gene.
(In general: Two-electrode voltage clamp is typically applied to oocytes expressing channels or transporters.)

Test [2] deals with PBO-8 homomers. Put plainly: Two-electrode voltage clamp of Xenopus oocytes injected with PBO-8 cRNA (homomers). It is filed as cell-based, C. elegans.
In test [3] the test system is PBO-5/PBO-8 receptors. As to the kind of experiment: Two-electrode voltage clamp of Xenopus oocytes coinjected with PBO-5 and PBO-8 cRNA. It counts as cell-based, C. elegans. Particulars: for run-down (use-dependent block) of H+-evoked current by the buffer of the extracellular solution: repeated pH 6.8 test pulses. The protocol:
as §1
Ion selectivity experiments: All points are responses to test pulse applications of pH 6.8 for 5 seconds. The reversal potential of PBO-5/PBO-8 expressing oocytes were first determined in standard Ringer's (in mM): 115 NaCl, 1.0 CaCl2, 10 Bis-Tris Propane (pH 7.4, acetic acid). For chloride permeability a simplified solution was used, chloride-free (in mM): 115 Na^+ gluconate, 1.0 CaCl2, 10 Bis-Tris Propane (pH 7.4 acetic acid). For Na^+ permeability a simplified solution was used, Na^+ free (in mM): 115 mM N-methyl D-glucamine (NMDG), 1.8 CaCl2, 10 Bis-Tris Propane (pH 7.4 acetic acid)). All solutions were brought to pH by addition of NaOH or acetic acid. To determine K^+ permeability, I-V experiments were performed in K^+ Ringer's (in mM): 115 K^+-gluconate, 1.0 CaCl2, 10 Bis-Tris Propane (pH=7.4 acetic acid). To determine Ca^2+ permeability extracellular Na^+ was lowered to 90 mM and extracellular CaCl2 was increased to 3 mM and 10 mM, compare to 1 mM Ca^2+ control. To better resolve calcium permeability, the Na^+ free solution was used except CaCl2 was increased ten-fold, 18 mM CaCl2 (in mM): 115 NMDG, 18 CaCl2, 10 Bis-Tris Propane, (pH 7.4 acetic acid). Osmolarity was measured for each solution and was maintained at 240 mOsm by the addition of sucrose. All recordings were done at room temperature. We used 3M KCl filled electrodes with a resistance between 1-3 MΩ. We used a 3M KCl agar bridge to minimize liquid junction potentials, and all liquid junctions potentials arising at the tip of the recording electrode were corrected online.
Data analysis. Data acquisition and analysis were performed using Axograph (Axon Instruments) software, and curve fitting and statistical analysis were performed with Prism (Graphpad). Dose-response curves from individual oocytes were normalized to the maximum and minimum values and averaged for at least eleven oocytes. Normalized data were fit to the four-parameter equation derived from the Hill equation: Y=Min+(Max−Min)/(1+10(Log EC50-X)(nH)), where Max is the maximal response, Min is the response at the lowest drug concentration, X is the logarithm of agonist concentration, EC50 is the half-maximal response, and nH is the Hill coefficient. Error bars represent the standard error of the mean.

The subject of test [4] is posterior body contraction. As to the kind of experiment: Posterior body contraction of the defecation cycle in vivo. The settings on record: 100 mM, pH 7.2, injected into pseudocoelomic space. Further details: species or system C. elegans. The protocol:
To determine if H^+ ions are required to initiate a posterior body contraction endogenous acidification of the pseudocoelomic space is blocked. For example, 100 mM Bis-Tris Propane buffered saline (pH 7.2) is injected into the pseudocoelomic space of an animal and defecation cycles postinjection observed. […] The injected animals should phenocopy both pbo-4 and pbo-5 mutants.
Alternatively, a caged buffer is used to assay the requirement for H^+ activation of PBO-5/PBO-8 receptors in vivo. For example, animals are injected with a caged buffer (Molecular Probes) and the buffer uncaged, by flash photolysis, as a posterior body contraction is about to occur. An advantage of the latter scheme is that an animal can be injected first and then observed for a number of cycles to determine if it retains normal defecation cycles, and in particular posterior body contractions. After quantification of a number of defecation cycles, the buffer is uncaged and the animal observed for a specific loss of posterior body contraction. Li addition, the inverse experiment, where caged protons are injected, may be conducted to elicit an out of phase posterior body contraction by uncaging the protons during the intercycle.
The posterior body contraction occurs via a calcium-regulated mechanism. […]

Where [5] appears, read: Xenopus oocytes, two-electrode voltage clamp.

As for `N[C@@H](CCC(=O)O)C(=O)O` [glutamate], the “activation of PBO-5 homomers (functional response)” value (shortened to “activation of PBO-5 homomers”) in test [1] is “lacked the ability to activate”. In test [2], the “activation of PBO-8 homomers” value is recorded as “lacked the ability to activate”. Also, the “activation of PBO-5/PBO-8 heteromers” value in test [3] (setting [5]) was “lacked the ability to activate”.
`O=S(=O)(O)CCN1CCN(CCO)CC1` [HEPES, N-2-hydroxyethylpiperazine-N′-2-ethanesulfonic acid]: in test [3], the “run-down (use-dependent block) of H+-evoked current by the buffer of the extracellular solution” value (shortened to “run-down (use-dependent block)”) was “very rapid rundown; also recorded: inhibitory to the receptor”.
As for `[1H+]` [H^+], the figures for the pH50 in test [3] (1 mM Ca2+ control conditions) and in test [3] (10 mM Ca2+ test conditions) were 6.88 and 6.59, respectively. Also, the “activation of PBO-5/PBO-8 heteromers” value in test [3] (setting [5]) is given as “sufficient to activate”. Also, the “pH of 10% maximal activation” value in test [3] (perfusion buffer pH 7.4) is recorded as about 7.0. In test [3] (voltage-clamped at -60 mV, test pH 5 seconds, standard Ringer's, n=18), the “pH50 (half-maximal activation)” value is recorded as 6.83±0.01.
For the compound `[Ca+2]` [Ca^2+], the “maximal activation of PBO-5/PBO-8 on increasing extracellular Ca2+” value in test [3] (pH 6.0) is recorded as “no effect on maximal activation”. The “effect of extracellular Ca2+ on gating of PBO-5/PBO-8 (mode of action)” value in test [3] (pH 6.8, 10.0 mM vs 1.0 mM Ca2+) is “inhibit gating; also recorded: competitive antagonist”. Further, the “H-evoked responses compared to 1 mM Ca2+ control” value in test [3] (pH 7.0 and 6.8, Ca2+ increased to 3 mM and 10 mM) is given as “significantly reduced”.
For `OCC(CO)(CO)NCCCNC(CO)(CO)CO` [Bis-Tris Propane, 1,3-Bis[tris(hydroxymethyl)methylamino) propane], the “run-down (use-dependent block)” value in test [3] is recorded as “did not cause current run-down”. The “posterior body contraction after injection of buffered saline into the pseudocoelomic space” value in test [4] is reported as “fail to initiate a posterior body contraction”.
As for `O=S(=O)(O)CCN1CCOCC1` [MES, 2-(N-Morpholino)-ethanesulfonic acid], the “run-down (use-dependent block)” value in test [3] is listed as “did not cause current run-down”.
As to `NCCc1c[nH]c2ccc(O)cc12` [serotonin], the “activation of PBO-5 homomers” value in test [1] is reported as “failed to elicit a functional response”; in test [1] (listed as 5-HT), “lacked the ability to activate”. In addition, the “activation of PBO-8 homomers” value in test [2] is “lacked the ability to activate”. Also, in test [3] (setting [5]), the “activation of PBO-5/PBO-8 heteromers” value was “lacked the ability to activate”.
Take d-tubocurare: the “pharmacological block of PBO-5/8 responses” value in test [3] (cholinergic antagonist applied to PBO-5/8 expressing cells) is “all attempts to pharmacologically block PBO-5/8 responses failed”.
Consider `NCCCC(=O)O` [GABA, γ-aminobutyric acid], for which, in test [1], the “activation of PBO-5 homomers” value is reported as “failed to elicit a functional response; also recorded: lacked the ability to activate”. In test [2], the “activation of PBO-8 homomers” value is “lacked the ability to activate”. Besides, in test [3] (1 mM ligand, pH 6.8), the “co-activation: pH 6.8 plus ligand compared with pH 6.8 only application” value is given as “not significantly different”. In addition, the “activation of PBO-5/PBO-8 heteromers” value in test [3] (setting [5]) is “lacked the ability to activate”.
On to `N=C(N)NC(=O)c1nc(Cl)c(N)nc1N` [amiloride], for which the “block of PBO-5/8 gating” value in test [3] (1 mm amiloride) was “did not result current block”.
As to `NCC(=O)O` [glycine], the “activation of PBO-5 homomers” value in test [1] is “failed to elicit a functional response; also recorded: lacked the ability to activate”. For the same compound, the “activation of PBO-8 homomers” value in test [2] is recorded as “lacked the ability to activate”. The “activation of PBO-5/PBO-8 heteromers” value in test [3] was “lacked the ability to activate”.

The values are drawn from patent publication US8232063B2, “H+-gated ion channel” (University of Utah Research Foundation, priority 2004, dated 2012).
